# Reference: publication PMC5118987 (Antimicrobial Agents and Chemotherapy, 2016)
# Read-outs that look alike come from different tables or passages of the source.
# What was measured:
# [1] = tested on: NRTI-, NNRTI- and PI-Resistant HIV-1 Mutants; experiment: Antiviral activity against NRTI-, NNRTI- and PI-resistant HIV-1 mutants; format: cell-based; details: for EC50: Human immunodeficiency virus 1, WT, Table S7
# [2] = tested on: HIV-1 BaL; details: primary CD4+ T-cells, 35 days, drug at tissue culture equivalent clinical Cmin (FTC 160 × EC50)
# [3] = tested on: HIV-1 integration in MT-2 cells (HIV-1 IIIb); details: relative to DMSO; for Late reverse transcription products (fold change): HIV-1 IIIb-infected MT-2, compound >20-fold EC50, 12 h; for Alu-LTR integration junctions (fold change) / Integration failure of 2-LTR circles (fold change): HIV-1 IIIb-infected MT-2, compound >20-fold EC50, 24 h
# Method: Quantification of 2-long terminal repeat (LTR) circles, late reverse transcription products, and integration junctions was adapted from a previously described method ([30]). […] Three hours after viral adsorption, the infected cells were washed twice with 20 ml of RPMI 1640 medium containing 10% FBS and antibiotics and seeded in 6-well plates in 2 ml of culture medium at 1 × 10^6 cells per well. […] These plates were incubated at 37°C for either 12 h (for late reverse transcription product quantification) or 24 h (for 2-LTR circle and Alu-LTR product quantification), after which time the cells were harvested for total DNA isolation. DNA was extracted from each well using the QIAamp DNA minikit (Qiagen, Valencia, CA) and collected as a 100-μl eluate. TaqMan real-time PCR-quantified 2-LTR junctions (2-LTR circles), late reverse transcription products, and integration junctions (Alu-LTR) were normalized to the level of host globin gene in each sample. Quantification by PCR was performed on the ViiA 7 real-time PCR system (Life Technologies, Grand Island, NY).
# [4] = tested on: inhibitor-selected HIV-1 IIIb passages; experiment: Phenotypic profile of selected HIV-1 passages; format: cell-based; details: for EC50: Human immunodeficiency virus 1, IIIB
# [5] = tested on: INSTI-resistant HIV-1 mutants (HXB2); experiment: microbe, parasite or virus in culture; format: cell-based
# [6] = tested on: HIV-1 IIIb; experiment: HIV breakthrough selection in MT-2 cells; details: MT-2, HIV-1 IIIb; FTC 4× EC95, EVG 5× EC95, BIC and DTG 2.5× and 5× EC95; up to day 32
# [7] = tested on: HIV-1 IIIb; experiment: Antiviral assay in MT-2 cells; format: cell-based; details: Human immunodeficiency virus 1, IIIB, MT2; Table S9 footnote b; read-out: EC50 previously determined (start of resistance selection at twice the EC50)
# Method: For the antiviral assay utilizing MT-2 and MT-4 cells, 50 μl of a 2× test concentration of 5-fold serially diluted compound in culture medium with 10% FBS was added to each well of a 96-well plate (9 concentrations) in triplicate. MT-2 and MT-4 cells were infected with HIV-1 IIIb at a multiplicity of infection (MOI) of 0.01 for 3 h. Fifty microliters of infected cell suspension in culture medium with 10% FBS (∼1.5 × 10^4 cells) then was added to each well containing 50 μl of diluted compound. The plates were then incubated at 37°C for 5 days. After 5 days of incubation, 100 μl of CellTiter-Glo reagent (Promega Biosciences, Inc., Madison, WI) was added to each well containing MT-2 or MT-4 cells. Cell lysis was carried out by incubation at room temperature for 10 min and chemiluminescence was read. For compound cytotoxicity assessment, the protocol was identical except that uninfected cells were used and compounds were serially diluted 3-fold.
# [8] = tested on: HBV Production; experiment: microbe, parasite or virus in culture; details: Hepatitis B virus
# [9] = Cytotoxicity in AD38 cells; details: human
# [10] = in vitro; details: human, CC50 in Primary Human Hepatocytes
# [11] = 480 h, selected virus EVG P2 (day 20, 7.2 nM)
# [12] = selected virus BIC P3 (day 47, 6 nM)
# [13] = selected virus BIC P5 (day 71, 12 nM)
# [14] = selected virus BIC P6 (day 86, 24 nM)
# [15] = selected virus BIC P8 (day 156, 96 nM)
# [16] = selected virus BIC P9 (day 181, 192 nM)
# [17] = selected virus BIC P10 (day 234, 384 nM)
# [18] = selected virus DTG P3Lo (day 59, 6.4 nM)
# [19] = selected virus DTG P4 (day 87, 9.6 nM)
# [20] = selected virus DTG P5 (day 97, 14.4 nM)
# [21] = selected virus DTG P7 (day 139, 32.4 nM)
# [22] = selected virus DTG P9 (day 174, 72.9 nM)
# [23] = selected virus DTG P10 (day 202, 109.4 nM)
# [24] = selected virus EVG P4 (day 41, 28.8 nM)
# [25] = selected virus EVG P6 (day 56, 115 nM)
# [26] = selected virus EVG P7 (day 67, 230 nM)
# [27] = selected virus EVG P9 (day 94, 922 nM)
# [28] = selected virus EVG P10 (day 119, 1843 nM)
compound,measurement,setting,value
"COC(=O)N[C@H](C(=O)N[C@@H](Cc1ccccc1)[C@@H](O)CN(Cc1ccc(-c2ccccn2)cc1)NC(=O)[C@@H](NC(=O)OC)C(C)(C)C)C(C)(C)C [ATV, atazanavir]",EC50,[1],1.6 ± 0.9 nM
same,Frequency of Viral Breakthrough with RAMs,[2],0%
same,p24+ Wells,[2],0/24
"CC(C)CN(C[C@@H](O)[C@H](Cc1ccccc1)NC(=O)O[C@H]1CO[C@H]2OCC[C@H]21)S(=O)(=O)c1ccc(N)cc1 [DRV, darunavir]",Late reverse transcription products (fold change),[3],0.96 ± 0.11 fold change
same,Alu-LTR integration junctions (fold change),[3],0.72 ± 0.31 fold change
same,Integration failure of 2-LTR circles (fold change),[3],0.57 ± 0.24 fold change
same,EC50,[1],3.5 ± 1.6 nM
"Cc1cc(/C=C/C#N)cc(C)c1Nc1ccnc(Nc2ccc(C#N)cc2)n1 [RPV, rilpivirine]",EC50,[1],0.8 ± 0.4 nM
same,EC50 Fold Change Relative to WT,[1]; NNRTI resistant L100I K103N,21.9 fold change
same,Frequency of Viral Breakthrough with RAMs,[2],25%
same,p24+ Wells,[2],6/24
"O=C1Nc2ccc(Cl)cc2[C@@](C#CC2CC2)(C(F)(F)F)O1 [EFV, efavirenz]",Late reverse transcription products (fold change),[3],0.21 ± 0.07 fold change
same,Alu-LTR integration junctions (fold change),[3],0.10 ± 0.05 fold change
same,Integration failure of 2-LTR circles (fold change),[3],0.05 ± 0.04 fold change
same,EC50,[1],1.2 ± 0.4 nM
same,EC50 Fold Change Relative to WT,[1]; NNRTI resistant L100I K103N,> 83 fold change
same,Fold-Resistance Relative to HIV-1 IIIb,[4]; HIV-1-IIIb (reference),1 fold
same,EC50,[4]; [11],3 nM
same,EC50,[4]; HIV-1-IIIb (unselected),1.6 nM
same,EC50,[4]; [12],1.6 nM
same,EC50,[4]; [13],1.2 nM
same,EC50,[4]; [14],1.3 nM
same,EC50,[4]; [15],1.7 nM
same,EC50,[4]; [16],2.8 nM
same,EC50,[4]; [17],2.7 nM
same,EC50,[4]; [18],1.2 nM
same,EC50,[4]; [19],1.8 nM
same,EC50,[4]; [20],1.7 nM
same,EC50,[4]; [21],2.3 nM
same,EC50,[4]; [22],2.1 nM
same,EC50,[4]; [23],2.8 nM
same,EC50,[4]; [24],2.8 nM
same,EC50,[4]; [25],2.4 nM
same,EC50,[4]; [26],3.6 nM
same,EC50,[4]; [27],3.2 nM
same,EC50,[4]; [28],2 nM
same,Fold-Resistance Relative to HIV-1 IIIb,[4]; selected virus BIC P3,1 fold
same,Fold-Resistance Relative to HIV-1 IIIb,[4]; selected virus BIC P5,0.8 fold
same,Fold-Resistance Relative to HIV-1 IIIb,[4]; selected virus BIC P6,0.8 fold
same,Fold-Resistance Relative to HIV-1 IIIb,[4]; selected virus BIC P8,1.1 fold
same,Fold-Resistance Relative to HIV-1 IIIb,[4]; selected virus BIC P9,1.8 fold
same,Fold-Resistance Relative to HIV-1 IIIb,[4]; selected virus BIC P10,1.7 fold
same,Fold-Resistance Relative to HIV-1 IIIb,[4]; selected virus DTG P3Lo,0.8 fold
same,Fold-Resistance Relative to HIV-1 IIIb,[4]; selected virus DTG P4,1.1 fold
same,Fold-Resistance Relative to HIV-1 IIIb,[4]; selected virus DTG P5,1.0 fold
same,Fold-Resistance Relative to HIV-1 IIIb,[4]; selected virus DTG P7,1.4 fold
same,Fold-Resistance Relative to HIV-1 IIIb,[4]; selected virus DTG P9,1.3 fold
same,Fold-Resistance Relative to HIV-1 IIIb,[4]; selected virus DTG P10,1.8 fold
same,Fold-Resistance Relative to HIV-1 IIIb,[4]; selected virus EVG P2,1.8 fold
same,Fold-Resistance Relative to HIV-1 IIIb,[4]; selected virus EVG P4,1.7 fold
same,Fold-Resistance Relative to HIV-1 IIIb,[4]; selected virus EVG P6,1.5 fold
same,Fold-Resistance Relative to HIV-1 IIIb,[4]; selected virus EVG P7,2.2 fold
same,Fold-Resistance Relative to HIV-1 IIIb,[4]; selected virus EVG P9,2.0 fold
same,Fold-Resistance Relative to HIV-1 IIIb,[4]; selected virus EVG P10,1.2 fold
same,EC50,"[5]; Human immunodeficiency virus 1, HXB2, IN mutant E92Q",1.5 ± 0.3 nM
same,EC50,"[5]; Human immunodeficiency virus 1, HXB2, IN mutant E92Q/N155H",1.5 ± 0.4 nM
same,EC50,"[5]; Human immunodeficiency virus 1, HXB2, IN mutant E138K/Q148K",1.9 ± 0.4 nM
same,EC50,"[5]; Human immunodeficiency virus 1, HXB2, IN mutant G140S/Q148R",1.5 ± 0.3 nM
same,EC50,"[5]; Human immunodeficiency virus 1, HXB2, IN mutant M50I (BIC/DTG selection)",1.1 ± 0.4 nM
same,EC50,"[5]; Human immunodeficiency virus 1, HXB2, IN mutant M50I/R263K (BIC selection)",1 ± 0.3 nM
same,EC50,"[5]; Human immunodeficiency virus 1, HXB2, IN mutant M50I/S119R/R263K (DTG selection)",3.2 ± 1.8 nM
same,EC50,"[5]; Human immunodeficiency virus 1, HXB2, IN mutant N155H",1.6 ± 0.05 nM
same,EC50,"[5]; Human immunodeficiency virus 1, HXB2, IN mutant N155H/Q148R",2.2 ± 0.8 nM
same,EC50,"[5]; Human immunodeficiency virus 1, HXB2, IN mutant Q148R",1.7 ± 0.1 nM
same,EC50,"[5]; Human immunodeficiency virus 1, HXB2, IN mutant R263K (BIC/DTG selection), Table 7",1 ± 0.4 nM
same,EC50,"[5]; Human immunodeficiency virus 1, HXB2, IN mutant R263K, Table 6",1.8 ± 0.3 nM
same,EC50,"[5]; Human immunodeficiency virus 1, HXB2, IN mutant S119R (DTG selection)",2.1 ± 1.1 nM
same,EC50,"[5]; Human immunodeficiency virus 1, HXB2, IN mutant S119R/R263K (DTG selection)",2.1 ± 1 nM
same,EC50,"[5]; Human immunodeficiency virus 1, HXB2, IN mutant S153Y (DTG selection)",2.2 ± 1.1 nM
same,EC50,"[5]; Human immunodeficiency virus 1, HXB2, IN mutant S153Y/R263K (DTG selection)",2 ± 0.7 nM
same,EC50,"[5]; Human immunodeficiency virus 1, HXB2, IN mutant Y143R",1.7 ± 0.1 nM
same,EC50,"[5]; Human immunodeficiency virus 1, HXB2, WT (HXB2), Table 6, read-out: EC50",1.9 ± 0.3 nM
same,EC50,"[5]; Human immunodeficiency virus 1, HXB2, WT (HXB2), Table 7, read-out: EC50",1.2 ± 0.4 nM
same,Frequency of Viral Breakthrough with RAMs,[2],17%
same,p24+ Wells,[2],2/12
"COc1cc2c(cc1Cc1cccc(Cl)c1F)c(=O)c(C(=O)O)cn2[C@H](CO)C(C)C [EVG, elvitegravir]",day postinfection of HIV-1 breakthrough,[6],22 days
same,EC50,[1],2.5 ± 1.5 nM
same,EC50,[4]; [11],17.8 nM
same,EC50,[4]; HIV-1-IIIb (unselected),2.1 nM
same,EC50,[4]; [12],5.1 nM
same,EC50,[4]; [13],8.3 nM
same,EC50,[4]; [14],7.8 nM
same,EC50,[4]; [15],33.6 nM
same,EC50,[4]; [16],55 nM
same,EC50,[4]; [17],33 nM
same,EC50,[4]; [18],1.7 nM
same,EC50,[4]; [19],5 nM
same,EC50,[4]; [20],9.3 nM
same,EC50,[4]; [21],15.5 nM
same,EC50,[4]; [22],25.1 nM
same,EC50,[4]; [23],69.2 nM
same,EC50,[4]; [24],30.2 nM
same,EC50,[4]; [25],48.9 nM
same,EC50,[4]; [26],203 nM
same,EC50,[4]; [27],296 nM
same,EC50,[4]; [28],246 nM
same,EC50,[7],1.8 nM
same,Frequency of Viral Breakthrough with RAMs,[2],54%
same,p24+ Wells,[2],23/24
"C[C@H](Cn1cnc2c(N)ncnc21)OCP(=O)(O)O [TFV, tenofovir]",EC50,[1],3720 nM
same,EC50 Fold Change Relative to WT,[1]; NRTI resistant 6TAMs,7.1 fold change
same,EC50,[8],360 nM
same,CC50 at 5 days,[9],> 50000 nM
"Nc1nc(=O)n([C@@H]2CS[C@H](CO)O2)cc1F [FTC, emtricitabine]",day postinfection of HIV-1 breakthrough,[6],7 days
same,EC50,[1],385 ± 225 nM
same,EC50 Fold Change Relative to WT,[1]; NRTI resistant 6TAMs,10.8 fold change
same,EC50,[8],20 nM
same,CC50 at 5 days,[9],> 50000 nM
same,Frequency of Viral Breakthrough with RAMs,[2],58%
same,p24+ Wells,[2],14/24
COc1ccc(C[C@H](N)C(=O)N[C@H]2[C@@H](O)[C@H](n3cnc4c(N(C)C)ncnc43)O[C@@H]2CO)cc1 [Puromycin],CC50,[10]; Donor 1,1200 nM
same,CC50,[10]; Donor 2,830 nM
